Test [1] deals with T1, solubilized cytochrome c oxidase (COX) (Rattus norvegicus, UniProt P00406+P05503+P05505).
T1 construct: Cytochrome c oxidase was purified from rat liver mitochondria of female Wistar rats; from tissue; host or cells: rat liver mitochondria (female Wistar rats)
The experiment in a line: Activity of solubilized cytochrome c oxidase by oxygen consumption (Clarke electrode). Type of test: biochemical. Conditions: for IC50: read-out: IC50 (μM) in relation to COX. Here is the method: Cytochrome c oxidase was purified from rat liver mitochondria of female Wistar rats as described by Frei et al. (Frei, B., Winterhalter, K. H., and Richter, C. (1985) J. Biol. Chem. 260, 7394-7401). The homogenization medium contained 210 mM mannitol, 70 mM saccharose, 10 mM tris-HCl (pH 7.4), 0.1 mM EDTA, and 0.5 mg/mL BSA. The heart mitochondria were purified using a similar method, a polytron homogenizer being used. The cytochrome c oxidase was purified according to the method described by Adez and Cascarano (Adez, I. Z., and Cascarano, J. (1977) J. Bioenerg. Biomemb. 9, 237-253). Cytochrome c oxidase solubilized using Triton X-100 was reconstituted in variously composed phospholipid vesicles of differing dimensions, a modified cholate dialysis method being used. (Niggli, V., Siegel, E., and Carafoli, E. (1982) J. Biol. Chem. 257, 2350-2356). 1 mL of a phospholipid suspension (10 mg/mL in 50 mM KCl, 10 mM HEPES-KOH (pH 7.0), 0.1 mM K^+-EDTA; buffer A) was solubilized in 0.2 mL of a 400 mM cholate solution. The purified cytochrome c oxidase (40 μg) was added to 0.4 mL of the cholate-phospholipid mixture. After an hour on ice, the sample was put into dialysis tubes and dialyzed in the cold against 1 L of buffer A (24 hours), three buffer replacements being performed. Cytochrome c oxidase from Paracoccus denitrificans was graciously provided by Dr. Bernd Ludwig, Biology Center of the University of Frankfurt am Main, Germany.
The cytochrome c oxidase activity was determined by establishing the oxygen consumption. For this purpose, a Clarke electrode was used at 25° C. (Yellow Spring Instruments, Yellow Spring, Ohio), the measurement being performed under continuous stirring. Solubilized cytochrome c oxidase was suspended in 40 mM K^+-phosphate, 0.005 mM EDTA (pH 7.0), 0.7% Tween 20 containing 0.02 mM cytochrome c as a substrate and a mixture of ascorbate und tetramethyl-p-phenylenediamine (TMPD) (10 mM/1 mM). Reconstituted cytochrome c oxidase was measured with ascorbate/TPMD (10 mM/0.2 mM) in a medium containing 100 mM KCl, 0.01 M HEPES-KOH (pH 7.0) und 0.1 mM EDTA.
The radiation with light was performed using a 70 watt lamp which was attached at 10 cm height over the electrode. The oxidation of lipids using peroxynitrite was achieved by suspending 20 mg DPG in 1 mL of 40 mM K^+-phosphate and 0.05 mM EDTA (pH 7.0) and mixing with 0.94 μmol peroxynitrite (original solution 94 mM in 0.1 N NaOH). Malondialdehyde was measured as an index for the lipid oxidation as already described (Klein, S. D., Walt, H., and Richter, C. (1997) Arch. Biochem. Biophys., 348, 313-319).
The activity of the COX could be easily measured by registering the oxygen consumption of the enzyme in the presence of ascorbate and TPMD (tetramethyl-p-phenylene diamine) as an electron source to reduce cytochrome c.
The experiment was performed in darkness (line a) and/or under the incidence of light (line b). 5 μg of catalase from beef liver with 500 μM of H2O2 was added at the positions marked with arrows. […] Two separate measurements are illustrated (lines a and b). At the positions marked by dashed arrows, 300 μg/mL of cardiolipin was added at t=210 seconds and t=950 seconds. At the position of the solid arrow, 5 μg of catalase from beef liver with 500 μM of H2O2 was added.
The oxygen consumption of solubilized COX (2 μg/mL) was measured in the presence of various substances using a Clarke electrode (see materials and methods). […] TPP^+=tetraphenyl phosphonium ion; MPP^+=methylphenyl pyridinium ion.
The oxygen consumption of solubilized COX (2 μg/mL) was measured in the presence of various substances using a Clarke electrode (see materials and methods).

For a further test, the target named is T2, COX (Rattus norvegicus, UniProt P00406+P05503+P05505).
T2 construct: Cytochrome c oxidase was purified from rat liver mitochondria of female Wistar rats; from tissue; host or cells: rat liver mitochondria (female Wistar rats)
T2 sequence (P00406 whole entry, other chains not shown): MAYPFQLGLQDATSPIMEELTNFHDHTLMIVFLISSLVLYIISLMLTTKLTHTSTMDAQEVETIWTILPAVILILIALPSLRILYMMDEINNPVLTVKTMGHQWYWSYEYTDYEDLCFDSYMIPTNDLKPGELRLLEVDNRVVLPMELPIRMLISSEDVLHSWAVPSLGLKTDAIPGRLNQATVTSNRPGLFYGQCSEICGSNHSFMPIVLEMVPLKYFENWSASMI
T2 sequence (P05505 whole entry, other chains not shown): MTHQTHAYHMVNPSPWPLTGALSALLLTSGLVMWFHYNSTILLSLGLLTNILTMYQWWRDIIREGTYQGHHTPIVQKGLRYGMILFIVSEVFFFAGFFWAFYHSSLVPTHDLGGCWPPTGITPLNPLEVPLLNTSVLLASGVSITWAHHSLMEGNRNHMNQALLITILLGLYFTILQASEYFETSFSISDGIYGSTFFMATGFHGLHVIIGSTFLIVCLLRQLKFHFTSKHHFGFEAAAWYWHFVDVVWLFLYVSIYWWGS
Description: Binding of [3H]-A2E to COX by co-precipitation. The conditions noted are these: 20 min. Here is the method:
(§1) The quantity of protein used in each case was approximately 50 pmol. After 20 minutes of incubation in the darkness or under radiation using light, 10% (final concentration) of trichloroacetic acid was added, the precipitate was collected on Millipore filters, and the dissolved filter was examined for radioactivity.
To investigate the hypothesis of whether a molecular interaction occurs between COX and A2E, an acid precipitation of COX was performed after the addition of A2E and radiation with light, and/or after A2E exposure in darkness (see Table IV).
(§2) [^3H]-A2E was added to solubilized COX or other proteins. After 20 minutes of incubation in darkness (setup was wrapped in aluminum foil) or under exposure to light, 10% trichloroacetic acid (final concentration) was added, the precipitate was collected on Millipore filters, and the filters, which were dissolved in solvent, were subsequently examined for radioactivity. CL=cardiolipin (diphosphatidylglycerol, DPC); Cyt. c=cytochrome c; BSA=bovine serum albumin.

For a further test, the system named is MCF-7 cells. The experiment in a line: A2E-induced apoptosis of MCF-7 cells in culture. The test is classed as cell-based. The source says:
These advantageous properties predestine the phospholipids according to the present invention for use as a medication for treating pathological conditions of the retina, particular for treating AMD and macular degeneration.

The next test concerns the target T3, Myoglobin (Homo sapiens, UniProt P02144).
T3 sequence (P02144 1-154): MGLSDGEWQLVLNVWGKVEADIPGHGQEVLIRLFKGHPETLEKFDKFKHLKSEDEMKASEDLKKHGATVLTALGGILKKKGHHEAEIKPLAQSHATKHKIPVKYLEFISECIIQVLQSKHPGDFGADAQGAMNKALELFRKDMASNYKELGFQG
The experiment in a line: Binding of [3H]-A2E to myoglobin by co-precipitation. Conditions: 20 min. Here is the method: as §1, §2

For a further test, the target named is Cyt.c (Homo sapiens, UniProt P99999). The experiment in a line: Binding of [3H]-A2E to cytochrome c by co-precipitation. Conditions: 20 min. Here is the method:
as §1, §2

The target of a further test is BSA (Bos taurus, UniProt P02769). The experiment in a line: Binding of [3H]-A2E to BSA by co-precipitation. More on the design: species or system bovine. The conditions noted are these: 20 min. Here is the method:
as §1, §2

The target in test [2] is T1, solubilized cytochrome c oxidase (COX). Description: Activity of solubilized cytochrome c oxidase by oxygen consumption (Clarke electrode). The conditions noted are these: read-out: IC50 (A2E concentration for 50% inhibition of COX). The test is classed as biochemical.
Test [3] has as its target T4, COX from Paracoccus denitrificans (Paracoccus denitrificans, UniProt P08306+P98002).
T4 construct: host or cells: gift from Dr. Bernd Ludwig, University of Frankfurt am Main
Description: Reconstituted COX from Paracoccus denitrificans, sensitivity to A2E. The test is classed as biochemical. Here is the method: (§3) Cytochrome c oxidase was purified from rat liver mitochondria of female Wistar rats as described by Frei et al. (Frei, B., Winterhalter, K. H., and Richter, C. (1985) J. Biol. Chem. 260, 7394-7401). The homogenization medium contained 210 mM mannitol, 70 mM saccharose, 10 mM tris-HCl (pH 7.4), 0.1 mM EDTA, and 0.5 mg/mL BSA. The heart mitochondria were purified using a similar method, a polytron homogenizer being used. The cytochrome c oxidase was purified according to the method described by Adez and Cascarano (Adez, I. Z., and Cascarano, J. (1977) J. Bioenerg. Biomemb. 9, 237-253). Cytochrome c oxidase solubilized using Triton X-100 was reconstituted in variously composed phospholipid vesicles of differing dimensions, a modified cholate dialysis method being used. (Niggli, V., Siegel, E., and Carafoli, E. (1982) J. Biol. Chem. 257, 2350-2356). […]
(§4) The cytochrome c oxidase activity was determined by establishing the oxygen consumption. […] Reconstituted cytochrome c oxidase was measured with ascorbate/TPMD (10 mM/0.2 mM) in a medium containing 100 mM KCl, 0.01 M HEPES-KOH (pH 7.0) und 0.1 mM EDTA.
(§5) A protective effect by negatively charged phospholipids was also observed when increasing quantities of cardiolipin (see above, a negatively charged phospholipid) were added to vesicles containing PC/PE (see Table III). […]

The next test deals with T5, COX from rat hearts (Rattus norvegicus, UniProt P00406+P05503+P05505).
T5 construct: The heart mitochondria were purified using a similar method, a polytron homogenizer being used; from tissue; host or cells: rat heart mitochondria
T5 sequence (P00406 whole entry, other chains not shown): as the sequence (P00406 whole entry, other chains not shown) above
T5 sequence (P05505 whole entry, other chains not shown): as the sequence (P05505 whole entry, other chains not shown) above
The experiment in a line: Reconstituted COX from rat hearts, sensitivity to A2E. Type of test: biochemical. Here is the method:
as §3, §4, §5

Test [4] concerns the target T6, reconstituted cytochrome c oxidase (COX) (Rattus norvegicus, UniProt P00406+P05503+P05505).
T6 construct: Cytochrome c oxidase was purified from rat liver mitochondria of female Wistar rats; from tissue; host or cells: rat liver mitochondria (female Wistar rats)
The experiment in a line: Activity of cytochrome c oxidase reconstituted in phospholipid vesicles, oxygen consumption in presence of A2E. The test is classed as biochemical. Conditions: phospholipid used in the vesicles.
Description: Cytochrome c oxidase was purified from rat liver mitochondria of female Wistar rats as described by Frei et al. (Frei, B., Winterhalter, K. H., and Richter, C. (1985) J. Biol. Chem. 260, 7394-7401). The homogenization medium contained 210 mM mannitol, 70 mM saccharose, 10 mM tris-HCl (pH 7.4), 0.1 mM EDTA, and 0.5 mg/mL BSA. […] The cytochrome c oxidase was purified according to the method described by Adez and Cascarano (Adez, I. Z., and Cascarano, J. (1977) J. Bioenerg. Biomemb. 9, 237-253). Cytochrome c oxidase solubilized using Triton X-100 was reconstituted in variously composed phospholipid vesicles of differing dimensions, a modified cholate dialysis method being used. […] 1 mL of a phospholipid suspension (10 mg/mL in 50 mM KCl, 10 mM HEPES-KOH (pH 7.0), 0.1 mM K^+-EDTA; buffer A) was solubilized in 0.2 mL of a 400 mM cholate solution. The purified cytochrome c oxidase (40 μg) was added to 0.4 mL of the cholate-phospholipid mixture. After an hour on ice, the sample was put into dialysis tubes and dialyzed in the cold against 1 L of buffer A (24 hours), three buffer replacements being performed.
The cytochrome c oxidase activity was determined by establishing the oxygen consumption. […] Reconstituted cytochrome c oxidase was measured with ascorbate/TPMD (10 mM/0.2 mM) in a medium containing 100 mM KCl, 0.01 M HEPES-KOH (pH 7.0) und 0.1 mM EDTA. […]

Where two headings read alike, the source gives them in different places.

T1 sequence (P00406 whole entry, other chains not shown): as the sequence (P00406 whole entry, other chains not shown) above
T1 sequence (P05505 whole entry, other chains not shown): as the sequence (P05505 whole entry, other chains not shown) above
BSA, sequence (P02769 25-607): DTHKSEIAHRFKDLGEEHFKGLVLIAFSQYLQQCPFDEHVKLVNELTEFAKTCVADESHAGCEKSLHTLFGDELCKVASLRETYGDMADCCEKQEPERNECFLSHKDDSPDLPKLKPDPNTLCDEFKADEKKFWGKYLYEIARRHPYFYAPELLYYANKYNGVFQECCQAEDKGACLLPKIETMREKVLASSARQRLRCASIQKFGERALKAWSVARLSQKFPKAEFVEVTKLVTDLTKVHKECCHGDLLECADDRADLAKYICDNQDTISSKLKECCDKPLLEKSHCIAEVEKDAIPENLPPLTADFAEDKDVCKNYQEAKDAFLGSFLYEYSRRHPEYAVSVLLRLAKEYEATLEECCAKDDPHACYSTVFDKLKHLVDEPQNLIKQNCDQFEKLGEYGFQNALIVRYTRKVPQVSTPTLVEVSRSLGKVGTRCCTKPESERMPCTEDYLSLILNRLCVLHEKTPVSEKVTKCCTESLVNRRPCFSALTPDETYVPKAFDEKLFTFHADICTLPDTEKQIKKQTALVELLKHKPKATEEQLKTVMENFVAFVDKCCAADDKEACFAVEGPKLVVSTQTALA
Cyt.c, sequence (P99999 whole entry): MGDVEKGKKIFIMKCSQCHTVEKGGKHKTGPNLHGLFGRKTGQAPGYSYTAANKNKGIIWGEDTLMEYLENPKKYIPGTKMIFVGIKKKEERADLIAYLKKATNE
T6 sequence (P00406 whole entry, other chains not shown): as the sequence (P00406 whole entry, other chains not shown) above
T6 sequence (P05505 whole entry, other chains not shown): as the sequence (P05505 whole entry, other chains not shown) above
T4 sequence (P08306 30-281): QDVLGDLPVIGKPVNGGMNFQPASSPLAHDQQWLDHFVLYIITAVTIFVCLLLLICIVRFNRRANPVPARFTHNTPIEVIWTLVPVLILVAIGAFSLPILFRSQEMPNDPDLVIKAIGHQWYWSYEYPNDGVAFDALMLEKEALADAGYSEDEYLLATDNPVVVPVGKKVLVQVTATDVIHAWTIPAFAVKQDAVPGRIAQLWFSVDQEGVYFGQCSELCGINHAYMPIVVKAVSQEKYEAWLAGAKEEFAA
T4 sequence (P98002 whole entry): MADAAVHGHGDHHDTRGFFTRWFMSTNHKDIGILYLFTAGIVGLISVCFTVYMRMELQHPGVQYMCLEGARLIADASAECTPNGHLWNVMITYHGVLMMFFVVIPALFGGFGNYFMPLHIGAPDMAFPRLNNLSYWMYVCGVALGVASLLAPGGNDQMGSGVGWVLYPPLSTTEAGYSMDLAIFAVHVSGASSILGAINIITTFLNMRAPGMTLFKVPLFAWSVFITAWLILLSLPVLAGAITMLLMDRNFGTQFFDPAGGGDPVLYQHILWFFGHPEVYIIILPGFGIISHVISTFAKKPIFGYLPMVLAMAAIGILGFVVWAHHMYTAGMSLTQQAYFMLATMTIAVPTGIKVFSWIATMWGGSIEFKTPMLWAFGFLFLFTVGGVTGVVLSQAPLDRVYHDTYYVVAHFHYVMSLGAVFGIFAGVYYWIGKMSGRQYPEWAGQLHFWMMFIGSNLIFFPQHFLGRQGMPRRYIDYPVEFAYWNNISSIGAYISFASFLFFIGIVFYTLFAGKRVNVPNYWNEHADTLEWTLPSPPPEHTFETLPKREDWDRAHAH

In the case of 1,3 diphosphatidylglycerol [CL], the “Protective effect on COX against A2E after (pre)treatment with peroxynitrite” value in [1] (CL oxidised with peroxynitrite) is given as “loss of the protective properties”. On COX (co-precipitation), the “Prevention of A2E binding to COX” value is “almost completely prevented”. In addition, the Cells survived in the test with MCF-7 cells (60 μM A2E + CL 500 μg/mL, 5 days) is recorded as 95%. In addition, the “Protection from A2E-induced apoptosis” value in the test with MCF-7 cells (CL 500 μg/mL) was “significant protective effect”.

In the case of `CC1=C(/C=C/C(C)=C/C=C/C(C)=C/c2cc(/C=C/C=C(C)/C=C/C3=C(C)CCCC3(C)C)cc[n+]2CCO)C(C)(C)CCC1` [A2E, N-retinyl-N-retinylidene ethanolamine], the “Molecules A2E/molecules protein” value at Myoglobin (darkness) is 0.0 (n = 2); on Myoglobin (exposure to light), 0.0 (n = 2); on Cyt.c (darkness), 0.0 (n = 3); on Cyt.c (exposure to light), 0.0 (n = 3); at COX (COX + CL + Cyt.c, darkness) it was 0.7 +/− 0.9 (n = 3); on COX (COX + CL + Cyt.c, exposure to light), 3.8 +/− 2.3 (n = 4). Besides, the “Molecules A2E/molecules protein” value is listed as 2.7 +/− 3.6 (n = 4) on COX (COX + CL, exposure to light); 1.6 +/− 0.5 (n = 3) at BSA (darkness); 1.6 +/− 0.5 (n = 3) at BSA (exposure to light). For the same molecule, in test [1] (solubilized COX 2 μg/mL, A2E always 20 μM, CL 200 μg/mL, RR 10 μM, La3+ 200 μM where added), the “% COX inhibition” value was 60%. Further, the values for the IC50 in [1] (solubilized COX 2 μg/mL), in [2] (solubilized COX 1 μg/mL) and in test [2] (solubilized COX 4 μg/mL) were 7 µM, 3 µM and 20 µM, respectively. Further, in the test on MCF-7 cells (60 μM A2E, 5 days), the Cells died off stood at 99%. Moreover, in the test on MCF-7 cells (A2E 10, 30, 60 μM, 3 and/or 5 days), the Induction of apoptosis entry is on record as “led to the cells becoming apoptotic”. The “Sensitivity of enzyme to A2E” value (in test [3]; on COX from rat hearts) was “sensitive” in each case.

As to `Cc1cc(N)c2ccccc2[n+]1CCCCCCCCCC[n+]1c(C)cc(N)c2ccccc21` [Dequalinium], the IC50 in [1] (solubilized COX 2 μg/mL) came out at 40 µM.

Turning to `C[n+]1ccc(-c2ccccc2)cc1` [MPP^+, methylphenyl pyridinium ion], the “IC50 (μM) in relation to COX” value in test [1] (solubilized COX 2 μg/mL) is on record as “No inhibition”.

For the molecule `CC1=C(/C=C/C(C)=C/C=C/C(C)=C/C=O)C(C)(C)CCC1` [Retinal], the IC50 in test [1] (solubilized COX 2 μg/mL) is 200 µM.

For the molecule `CCCCCCCCCCCCCCCCCCN` [Stearylamine], the “IC50 (μM) in relation to COX” value in [1] (solubilized COX 2 μg/mL) is listed as “No inhibition”.

`c1ccc([P+](c2ccccc2)(c2ccccc2)c2ccccc2)cc1` [TPP^+, tetraphenyl phosphonium ion]: in test [1] (solubilized COX 2 μg/mL), the “IC50 (μM) in relation to COX” value is listed as “No inhibition”.

As to phosphatidylinositol [PI], the “Protection of reconstituted COX from inhibition by A2E” value in [4] is “pronounced protective effect”.
